According to patent US12285401B2, “Pharmaceutical composition comprising trimebutine or pharmaceutically acceptable salt thereof as an active ingredient for prevention or treatment of cancer” (DAEGU-GYEONGBUK MEDICAL INNOVATION FOUNDATION, priority 2019, dated 2025):

Assays:
[1] = test system: ALDH, OCT4 and SOX2; experiment: Western blotting of markers related to cancer stemness in A2780-SP cells; format: cell-based; conditions: 1 μM or 10 μM
Method: A2780-SP cells (ovarian cancer stem cells) were plated in an ultra-low attachment 6-well plate (Corning) at the density of 4×10^5 viable cells per well and cultured in a cancer stem cell medium. On the next day of culture, the medium was replaced with NBM (Neuro Basal Medium), and the cells were cultured for 16 hours in starvation. Then, the cells were treated with the compound of Example 1 at the concentration of 1 μM or 10 μM for 1 hour. The medium was replaced with a cancer stem cell medium containing the compound, and the cells were collected and cultured for an additional 30 minutes before being lysed in RiPA buffer. The extracted protein was separated by SDS-PAGE gel and transferred to a PVDF membrane for Western blotting. […]
Signals were developed on an enhanced chemiluminescence HRP substrate (Bio-Rad) and detected using LAS-3000 mini (Fuji film). The signals were quantified using Image J software (NIH Image).
In order to confirm the anticancer effect through the changes in the expressions of the markers related to sternness and the proteins related to survival and proliferation of cancer stem cells according to the treatment of the pharmaceutical composition containing trimebutine of the present invention, the expression levels of various factors were analyzed by Western blotting. […]

[2] = test system: Na channel; experiment: Whole cell patch clamp recording, Na channel current in A2780-SP cells; format: cell-based; conditions: 10 μM, 5 minutes
[3] = test system: β-catenin; experiment: β-catenin S552 phosphorylation and translocation experiments in A2780-SP cells; format: cell-based; conditions: 1 μM or 10 μM, 24 hours
Method: A2780-SP cells (ovarian cancer stem cells) were plated in an ultra-low attachment round bottom 6-well plate (Corning) at the density of 4×10^5 viable cells per well and cultured in a cancer stem cell medium (CM). The cancer stem cell medium is composed of a neurobasal medium supplemented with 20 ng/ml of bFGF, 10 ng/ml of EGF, 2.5 ng/ml of amphotericin B, HEPES, Glutamax and B27. On the next day of culture, the cells were treated with the compound at the concentration of 1 μM or 10 μM for 24 hours. The control group was treated in the same manner as above for 24 hours with a neurobasal medium (NBM) and a cancer stem cell medium (CM) containing DMSO.
To measure the degree of phosphorylation of β-catenin S552, 100 μl of RIPA buffer (containing 1× protease inhibitor and phosphatase inhibitor) was added to the prepared cells, and the cells were disrupted by shaking once every 5 minutes for a total of 15 minutes. The disrupted cells were centrifuged at 13,000 rpm for 15 minutes to collect only the supernatant protein, and the obtained protein was quantified using a BCA protein quantification kit (Pierece, MA, USA), and a total of 15 μg of the protein was used for Western blotting. NE-PER Nuclear and Cytoplasmic Extraction Reagents (Thermoscientific, #78833) were used to separate cytoplasmic and nuclear proteins. […]

[4] = test system: L-type Ca channel; experiment: Whole cell patch clamp recording, Ca channel current in A2780-SP cells; format: cell-based; conditions: 10 μM, 5 minutes
[5] = test system: A2780-SP xenograft; experiment: A2780-SP xenograft model, tumor formation; format: in vivo; conditions: 3 mg/kg, intraperitoneal, nude mouse
Method: (§1) In order to confirm the inhibitory effect of the pharmaceutical composition of Examples of the present invention in the ovarian cancer stem cell tumor model, each nude mouse was subcutaneously inoculated with 2×10^6 A2780-SP (ovarian cancer stem cell line) cells. After the implantation, the size of tumor formation was measured using a caliper. When the tumor volume became 100 mm^3 or more, the experimental group was divided into the control group (vehicle) and the pharmaceutical composition of Examples of the present invention treated group (3 mg/kg of trimebutine) and the drug was administered to confirm the effect of the drug. The drug was administered […] through intraperitoneal administration, and the size of the tumor and the weight of the mouse were measured at intervals of 3 to 4 days. Then, all mice were euthanized on the day of the end of the experiment, and finally the size of the tumor and the weight were measured.
(§2) In order to confirm the ovarian cancer treatment effect of the pharmaceutical composition containing trimebutine of the present invention in vivo, an animal model experiment was performed. The specific experimental method is the same as the animal experiment method described in Experimental Protocol 5.

[6] = A2780-SP xenograft model, change in body weight; format: in vivo; conditions: 3 mg/kg, intraperitoneal, nude mouse
Method: as §1, §2

[7] = test system: A2780-SP cells (ovarian cancer stem cells); experiment: Cell viability assay (Cell-titer Glo), A2780-SP sphere cell viability; format: cell-based; conditions: for viability of A2780-SP cells (ovarian cancer stem cells), result in words: 1500 cells, 7 days, Cell titer Glo; for GI50: A2780-SP ovarian cancer stem cells, 1,500 cells per well, Cell-titer Glo
[8] = target: T1, BKCa channel (Homo sapiens, UniProt Q12791); experiment: Whole cell patch clamp recording, BKCa channel current in A2780-SP cells; format: cell-based; conditions: 10 μM, 5 minutes
T1 construct: K^+ current of the BK channel was measured by increasing the membrane voltage by 10 mV starting at −80 mV; endogenous in cells; host or cells: A2780-SP (ovarian cancer stem cells)

[9] = test system: A2780 cells (ovarian cancer cells); experiment: Cell viability assay (Cell-titer Glo), A2780 cell viability; format: cell-based; conditions: 3 days

T1 sequence (Q12791 whole entry): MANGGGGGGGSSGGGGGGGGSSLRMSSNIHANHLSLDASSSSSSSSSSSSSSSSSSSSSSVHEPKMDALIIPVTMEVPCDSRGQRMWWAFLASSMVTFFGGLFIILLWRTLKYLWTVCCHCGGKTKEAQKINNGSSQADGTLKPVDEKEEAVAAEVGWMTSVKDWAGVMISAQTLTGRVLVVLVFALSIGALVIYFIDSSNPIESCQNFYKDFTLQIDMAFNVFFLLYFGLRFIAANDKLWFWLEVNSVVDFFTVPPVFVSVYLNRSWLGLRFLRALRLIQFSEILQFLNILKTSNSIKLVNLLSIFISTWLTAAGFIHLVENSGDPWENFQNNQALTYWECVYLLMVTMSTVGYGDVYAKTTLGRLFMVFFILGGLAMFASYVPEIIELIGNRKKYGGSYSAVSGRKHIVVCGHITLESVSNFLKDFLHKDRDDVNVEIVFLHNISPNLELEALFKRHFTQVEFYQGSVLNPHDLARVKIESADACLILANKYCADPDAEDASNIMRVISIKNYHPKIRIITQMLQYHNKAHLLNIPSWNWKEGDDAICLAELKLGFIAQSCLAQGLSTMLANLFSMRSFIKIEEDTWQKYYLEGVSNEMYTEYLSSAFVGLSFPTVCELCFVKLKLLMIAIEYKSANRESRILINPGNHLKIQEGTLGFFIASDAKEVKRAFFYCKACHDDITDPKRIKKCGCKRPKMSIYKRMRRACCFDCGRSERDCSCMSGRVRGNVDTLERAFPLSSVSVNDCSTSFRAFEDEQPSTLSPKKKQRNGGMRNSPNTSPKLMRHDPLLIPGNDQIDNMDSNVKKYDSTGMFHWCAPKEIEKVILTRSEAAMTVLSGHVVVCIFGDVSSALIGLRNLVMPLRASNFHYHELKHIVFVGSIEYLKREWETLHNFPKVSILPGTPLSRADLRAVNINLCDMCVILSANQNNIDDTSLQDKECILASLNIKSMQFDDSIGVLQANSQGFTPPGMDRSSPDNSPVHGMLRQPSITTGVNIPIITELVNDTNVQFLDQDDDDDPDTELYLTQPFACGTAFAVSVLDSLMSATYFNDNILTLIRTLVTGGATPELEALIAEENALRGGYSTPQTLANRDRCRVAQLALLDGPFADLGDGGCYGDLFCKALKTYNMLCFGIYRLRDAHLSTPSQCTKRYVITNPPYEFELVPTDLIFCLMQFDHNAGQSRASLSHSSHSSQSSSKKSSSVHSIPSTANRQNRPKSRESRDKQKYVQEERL

Q: Which “expressions of ALDH, OCT4 and SOX2, the markers related to cancer stemness” value [1] does the source give for `CCC(COC(=O)c1cc(OC)c(OC)c(OC)c1)(c1ccccc1)N(C)C` (centres unmarked) [Example 1, Trimebutine] here?
A: reduced

Q: What about the “amplitude of Na current” value [2] of the same compound?
A: remarkably suppressed

Q: What about the “degree of β-catenin S552 phosphorylation” value [3] of the same compound?
A: reduced

Q: And the “translocation of β-catenin into the nucleus” value [3]?
A: reduced

Q: What about the “amplitude of Ca current” value [4] of the same compound?
A: remarkably suppressed

Q: What about the tumor formation [5] of the same compound?
A: specifically inhibited tumor formation

Q: And the “change in body weight” value [6]?
A: no change in body weight

Q: And the “viability of A2780-SP cells (ovarian cancer stem cells), result in words” value [7]?
A: reduced the viability

Q: What about the “viability of A2780-SP cells (ovarian cancer stem cells), result in words” value ([7]; listed as trimebutine) of the same compound?
A: excellent effect of inhibiting the survival of ovarian cancer stem cells

Q: And the GI50 [7]?
A: 401 nM

Q: And the “selectivity for cancer stem cells rather than cancer cells” value ([7]; A2780-SP versus A2780, FIGS. 1F and 1G compared with FIGS. 1A to 1E)?
A: excellent selectivity

Q: What about the “amplitude of BKCa current” value [8] of the same compound?
A: remarkably suppressed

Q: For `COc1ccc(CN2CCN(C(c3ccc(F)cc3)c3ccc(F)cc3)CC2)c(OC)c1OC` [Comparative Example 1 (lomerizine), Lomerizine], which GI50 [7] is on record?
A: 2950 nM

Q: With `CCOC(=O)C1=C(C)NC(C)=C(C(=O)OCC)C1c1ccccc1/C=C/C(=O)OC(C)(C)C` [Comparative Example 1 (lacidipine), Lacidipine] as the compound, how does the GI50 [7] read?
A: 2900 nM

Q: Which GI50 [9] does the source give for `COC(=O)C1=C(C)NC(C)=C(C(=O)OCCN2CCN(C(c3ccccc3)c3ccccc3)CC2)C1c1cccc([N+](=O)[O-])c1` (centres unmarked) [Comparative Example 1 (manidipine), Manidipine] here?
A: ~9670 nM

Q: And the GI50 [7]?
A: 2700 nM

Q: Which GI50 [7] does the source give for `COC(=O)C1=C(C)NC(C)=C(C(=O)O[C@@H]2CCCN(Cc3ccccc3)C2)[C@@H]1c1cccc([N+](=O)[O-])c1` (racemic) [Comparative Example 1 (benidipine), Benidipine] here?
A: 2640 nM
